6 compounds from the NIST ThermoML archive (doi:10.1021/acs.jced.5b00051) can be followed below.

Molecules are shown by their SMILES. Numbers after ± are expanded uncertainties.

The nature of the first data set: molar heat capacity at constant pressure. To be noted: 307.15 K; 101.33 kPa; Liquid; Large sample (1 g) DSC.
As to `CCCCCCCCOCCOCCOCCO` [2-[2-[2-(octyloxy)ethoxy]ethoxy]ethanol], the “molar heat capacity at constant pressure” value came to 578.4 ± 9 J/K/mol.
The same measure, in the same setting: then `CCCOCCO` [2-propoxyethanol], with 245.3 ± 3.8 J/K/mol; and `COCCOCCOCCOCCO` [3,6,9,12-tetraoxatridecanol], with 450.5 ± 7 J/K/mol; and `CCOCCOCCO` [3,6-dioxa-1-octanol], with 304.3 ± 4.7 J/K/mol.
With `CCCOCCOCCO` [2-(2-propoxyethoxy)ethanol], the “molar heat capacity at constant pressure” value came to 332.8 ± 5.2 J/K/mol.
Still for that read-out and setting: then `CCCCOCCOCCO` [3,6-dioxa-1-decanol], with 364.2 ± 5.6 J/K/mol.

Staying with this data set, now noted: 309.15 K; 101.33 kPa; Liquid; Large sample (1 g) DSC.
`CCCCCCCCOCCOCCOCCO` [2-[2-[2-(octyloxy)ethoxy]ethoxy]ethanol]: the “molar heat capacity at constant pressure” value worked out at 579.5 ± 9 J/K/mol.
Turning to `CCCOCCO` [2-propoxyethanol], the “molar heat capacity at constant pressure” value worked out at 246.2 ± 3.8 J/K/mol.
The same measure, in the same setting: then `COCCOCCOCCOCCO` [3,6,9,12-tetraoxatridecanol], with 451 ± 7 J/K/mol; and `CCOCCOCCO` [3,6-dioxa-1-octanol], with 304.9 ± 4.7 J/K/mol; and `CCCOCCOCCO` [2-(2-propoxyethoxy)ethanol], with 333.6 ± 5.2 J/K/mol.
The same measure, in the same setting: then `CCCCOCCOCCO` [3,6-dioxa-1-decanol], with 365.1 ± 5.7 J/K/mol.

The same data set, now with this note: 311.15 K; 101.33 kPa; Liquid; Large sample (1 g) DSC.
`CCCCCCCCOCCOCCOCCO` [2-[2-[2-(octyloxy)ethoxy]ethoxy]ethanol]: the “molar heat capacity at constant pressure” value was found to be 580.6 ± 9 J/K/mol.
On to `CCCOCCO` [2-propoxyethanol], for which the “molar heat capacity at constant pressure” value turned out to be 247.1 ± 3.8 J/K/mol.
For `COCCOCCOCCOCCO` [3,6,9,12-tetraoxatridecanol], the “molar heat capacity at constant pressure” value was found to be 451.5 ± 7 J/K/mol.
As to `CCOCCOCCO` [3,6-dioxa-1-octanol], the “molar heat capacity at constant pressure” value was 305.5 ± 4.7 J/K/mol.
On the same count and under the same terms, the same measure for `CCCOCCOCCO` [2-(2-propoxyethoxy)ethanol]: 334.4 ± 5.2 J/K/mol.
On the same count and under the same terms, the same measure for `CCCCOCCOCCO` [3,6-dioxa-1-decanol]: 366 ± 5.7 J/K/mol.

Still in this data set, the particulars now being: 313.15 K; 101.33 kPa; Liquid; Large sample (1 g) DSC.
Regarding `CCCCCCCCOCCOCCOCCO` [2-[2-[2-(octyloxy)ethoxy]ethoxy]ethanol], the “molar heat capacity at constant pressure” value is 581.7 ± 9 J/K/mol.
As for `CCCOCCO` [2-propoxyethanol], the “molar heat capacity at constant pressure” value is 248 ± 3.8 J/K/mol.
Turning to `COCCOCCOCCOCCO` [3,6,9,12-tetraoxatridecanol], the “molar heat capacity at constant pressure” value was 452 ± 7 J/K/mol.
The same measure, in the same setting: then `CCOCCOCCO` [3,6-dioxa-1-octanol], with 306.2 ± 4.7 J/K/mol; and `CCCOCCOCCO` [2-(2-propoxyethoxy)ethanol], with 335.2 ± 5.2 J/K/mol.
The same measure, in the same setting: the same measure for `CCCCOCCOCCO` [3,6-dioxa-1-decanol]: 366.9 ± 5.7 J/K/mol.

The same data set, now with this note: 315.15 K; 101.33 kPa; Liquid; Large sample (1 g) DSC.
`CCCCCCCCOCCOCCOCCO` [2-[2-[2-(octyloxy)ethoxy]ethoxy]ethanol]: the “molar heat capacity at constant pressure” value came out at 582.9 ± 9 J/K/mol.
On the same count and under the same terms, then `CCCOCCO` [2-propoxyethanol], with 248.9 ± 3.9 J/K/mol; and `COCCOCCOCCOCCO` [3,6,9,12-tetraoxatridecanol], with 452.5 ± 7 J/K/mol; and `CCOCCOCCO` [3,6-dioxa-1-octanol], with 306.9 ± 4.8 J/K/mol.
On to `CCCOCCOCCO` [2-(2-propoxyethoxy)ethanol], for which the “molar heat capacity at constant pressure” value is recorded as 336 ± 5.2 J/K/mol.
Still for that read-out and setting: the same measure for `CCCCOCCOCCO` [3,6-dioxa-1-decanol]: 367.9 ± 5.7 J/K/mol.

The same data set, now with this note: 317.15 K; 101.33 kPa; Liquid; Large sample (1 g) DSC.
In the case of `CCCCCCCCOCCOCCOCCO` [2-[2-[2-(octyloxy)ethoxy]ethoxy]ethanol], the “molar heat capacity at constant pressure” value was 584.1 ± 9 J/K/mol.
As for `CCCOCCO` [2-propoxyethanol], the “molar heat capacity at constant pressure” value is 249.8 ± 3.9 J/K/mol.
On the same count and under the same terms, the same measure for `COCCOCCOCCOCCO` [3,6,9,12-tetraoxatridecanol]: 453 ± 7 J/K/mol; for `CCOCCOCCO` [3,6-dioxa-1-octanol]: 307.5 ± 4.8 J/K/mol.
Still for that read-out and setting: then `CCCOCCOCCO` [2-(2-propoxyethoxy)ethanol], with 336.9 ± 5.2 J/K/mol; and `CCCCOCCOCCO` [3,6-dioxa-1-decanol], with 368.8 ± 5.7 J/K/mol.

Staying with this data set, now noted: 319.15 K; 101.33 kPa; Liquid; Large sample (1 g) DSC.
For `CCCCCCCCOCCOCCOCCO` [2-[2-[2-(octyloxy)ethoxy]ethoxy]ethanol], the “molar heat capacity at constant pressure” value came out at 585.3 ± 9.1 J/K/mol.
For `CCCOCCO` [2-propoxyethanol], the “molar heat capacity at constant pressure” value stood at 250.7 ± 3.9 J/K/mol.
Turning to `COCCOCCOCCOCCO` [3,6,9,12-tetraoxatridecanol], the “molar heat capacity at constant pressure” value stood at 453.6 ± 7 J/K/mol.
As to `CCOCCOCCO` [3,6-dioxa-1-octanol], the “molar heat capacity at constant pressure” value amounted to 308.2 ± 4.8 J/K/mol.
The same measure, in the same setting: the same measure for `CCCOCCOCCO` [2-(2-propoxyethoxy)ethanol]: 337.7 ± 5.2 J/K/mol.
In the case of `CCCCOCCOCCO` [3,6-dioxa-1-decanol], the “molar heat capacity at constant pressure” value was determined as 369.8 ± 5.7 J/K/mol.

Still in this data set, the particulars now being: 321.15 K; 101.33 kPa; Liquid; Large sample (1 g) DSC.
Consider `CCCCCCCCOCCOCCOCCO` [2-[2-[2-(octyloxy)ethoxy]ethoxy]ethanol], for which the “molar heat capacity at constant pressure” value turned out to be 586.5 ± 9.1 J/K/mol.
`CCCOCCO` [2-propoxyethanol]: the “molar heat capacity at constant pressure” value came out at 251.6 ± 3.9 J/K/mol.
Same read-out and setting: the same measure for `COCCOCCOCCOCCO` [3,6,9,12-tetraoxatridecanol]: 454.2 ± 7 J/K/mol; for `CCOCCOCCO` [3,6-dioxa-1-octanol]: 309 ± 4.8 J/K/mol.
Still for that read-out and setting: then `CCCOCCOCCO` [2-(2-propoxyethoxy)ethanol], with 338.5 ± 5.2 J/K/mol; and `CCCCOCCOCCO` [3,6-dioxa-1-decanol], with 370.8 ± 5.7 J/K/mol.

Still in this data set, the particulars now being: 323.15 K; 101.33 kPa; Liquid; Large sample (1 g) DSC.
Regarding `CCCCCCCCOCCOCCOCCO` [2-[2-[2-(octyloxy)ethoxy]ethoxy]ethanol], the “molar heat capacity at constant pressure” value worked out at 587.7 ± 9.1 J/K/mol.
On to `CCCOCCO` [2-propoxyethanol], for which the “molar heat capacity at constant pressure” value is recorded as 252.5 ± 3.9 J/K/mol.
On the same count and under the same terms, the same measure for `COCCOCCOCCOCCO` [3,6,9,12-tetraoxatridecanol]: 454.8 ± 7 J/K/mol.
